The assay has as its system 596521-263-R-J1-PDC complex spheroid growth. Description: Anticancer human tumor 596521-263-R-J1-PDC patient-derived soft tissue sarcoma cell line growth inhibition [Asc]. To be noted: for viability, T/C: stronger effect = lower value. Put shortly: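 Tumor cells were grown as complex spheroids with human endothelial cells (HUVEC) and human mesenchymal stem cells as stroma. Agents were tested alone and in combination, in half-log steps down from the clinical Cmax, or from 10 microM where Cmax was unknown.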

The mark [1] stands for this setting: compound alone, run of 11/07/2022.

Structures are written as SMILES. pIC50: −log10 of the molar value. “And” between values parts separate entries of the source, which are not always exact repeats. Identical values can stand only once.
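Also: spheroids exposed to compounds for 7 days.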

For `Cc1nc(N2CCC3(CC2)COC(C)C3N)c(CO)nc1Sc1ccnc(N)c1Cl` (stereo unspecified) + CCN1C(C(=O)NC23CCC(C(=O)O)(CC2)CC3)C(c2cccc(Cl)c2F)C2(C(=O)Nc3cc(Cl)ccc32)C12CCCCC2, the pIC50 by setting is: (curve of first compound, second compound 0.00949 µM) less than 5.52; (curve of first compound, second compound 0.03 µM) less than 5.52; (curve of first compound, second compound 0.0949 µM) less than 5.52; (curve of first compound, second compound 0.3 µM) less than 5.52; (curve of first compound, second compound 0.949 µM) less than 5.52; (curve of first compound, second compound 3 µM) less than 5.52. In addition, the viability, T/C was 97.8% (second compound 0.00949 µM, first compound 0.00949 µM); 92.9% (second compound 0.00949 µM, first compound 0.03 µM); 87.7% (second compound 0.00949 µM, first compound 0.0949 µM); 84.5% (second compound 0.00949 µM, first compound 0.3 µM); 78.6% (second compound 0.00949 µM, first compound 0.949 µM); 67.8% (second compound 0.00949 µM, first compound 3 µM). Moreover, the viability, T/C by setting is: (second compound 0.03 µM, first compound 0.00949 µM) 92.5%; (second compound 0.03 µM, first compound 0.03 µM) 99.1%; (second compound 0.03 µM, first compound 0.0949 µM) 104%; (second compound 0.03 µM, first compound 0.3 µM) 88.3%; (second compound 0.03 µM, first compound 0.949 µM) 81.2%; (second compound 0.03 µM, first compound 3 µM) 66.2%. Further, the viability, T/C by setting is: (second compound 0.0949 µM, first compound 0.00949 µM) 101%; (second compound 0.0949 µM, first compound 0.03 µM) 92.9%; (second compound 0.0949 µM, first compound 0.0949 µM) 87.4%; (second compound 0.0949 µM, first compound 0.3 µM) 91.3%; (second compound 0.0949 µM, first compound 0.949 µM) 80%; (second compound 0.0949 µM, first compound 3 µM) 69.3%. Further, the viability, T/C runs as follows: (second compound 0.3 µM, first compound 0.00949 µM) 101%; (second compound 0.3 µM, first compound 0.03 µM) 95%; (second compound 0.3 µM, first compound 0.0949 µM) 96.5%; (second compound 0.3 µM, first compound 0.3 µM) 91.5%; (second compound 0.3 µM, first compound 0.949 µM) 83.8%; (second compound 0.3 µM, first compound 3 µM) 69.3%. The viability, T/C by setting is: (second compound 0.949 µM, first compound 0.00949 µM) 90.8%; (second compound 0.949 µM, first compound 0.03 µM) 101%; (second compound 0.949 µM, first compound 0.0949 µM) 100%; (second compound 0.949 µM, first compound 0.3 µM) 91.5%; (second compound 0.949 µM, first compound 0.949 µM) 90.1%; (second compound 0.949 µM, first compound 3 µM) 73.8%. Further, the viability, T/C was 82.6% (second compound 3 µM, first compound 0.00949 µM); 81.6% (second compound 3 µM, first compound 0.03 µM); 82.1% (second compound 3 µM, first compound 0.0949 µM); 86.1% (second compound 3 µM, first compound 0.3 µM); 65.8% (second compound 3 µM, first compound 0.949 µM); 58.2% (second compound 3 µM, first compound 3 µM).

With `CCN1C(C(=O)NC23CCC(C(=O)O)(CC2)CC3)C(c2cccc(Cl)c2F)C2(C(=O)Nc3cc(Cl)ccc32)C12CCCCC2` (stereo unspecified), the viability, T/C by setting is: (compound 0.00949 µM) 103% [middle of 8 runs]; (compound 0.03 µM) 101% [middle of 8 runs]; (compound 0.0949 µM) 103% [middle of 8 runs]; (compound 0.3 µM) 105% [middle of 8 runs]; (compound 0.949 µM) 102% [middle of 8 runs]; (compound 3 µM) 95.7% [middle of 8 runs]. Moreover, the pIC50 under setting [1] was less than 5.52 and the pIC50 (curve of compound) was less than 5.52.

As to `Cn1ncnc1[C@H]1c2n[nH]c(=O)c3cc(F)cc(c23)N[C@@H]1c1ccc(F)cc1` + Cc1c(S(C)(=O)=O)c(-c2cc(F)cc(N3CCN(c4ccc(NS(=O)(=O)c5ccc(NC(CCN6CCC(C(=O)OCCCP(=O)(O)O)CC6)CSc6ccccc6)c(S(=O)(=O)C(F)(F)F)c5)cc4)CC3)c2)c(-c2ccc(Cl)cc2)n1C(C)C, the pIC50 is less than 7.00 (curve of first compound, second compound 0.0316 µM); less than 7.00 (curve of first compound, second compound 0.1 µM); less than 7.00 (curve of first compound, second compound 0.316 µM); less than 7.00 (curve of first compound, second compound 1 µM); 7.41 (curve of first compound, second compound 3.16 µM); 8.97 (curve of first compound, second compound 10 µM). Besides, the viability, T/C (second compound 0.0316 µM, first compound 0.000316 µM) was 97.5%; the viability, T/C (second compound 0.0316 µM, first compound 0.001 µM) was 112%; the viability, T/C (second compound 0.0316 µM, first compound 0.00316 µM) was 81.9%; the viability, T/C (second compound 0.0316 µM, first compound 0.01 µM) is 94.1%; the viability, T/C (second compound 0.0316 µM, first compound 0.0316 µM) was 87.4%; the viability, T/C (second compound 0.0316 µM, first compound 0.1 µM) was 79.3%. Besides, the viability, T/C was 90.6% (second compound 0.1 µM, first compound 0.000316 µM); 97.8% (second compound 0.1 µM, first compound 0.001 µM); 94.3% (second compound 0.1 µM, first compound 0.00316 µM); 81.6% (second compound 0.1 µM, first compound 0.01 µM); 78.5% (second compound 0.1 µM, first compound 0.0316 µM); 74.5% (second compound 0.1 µM, first compound 0.1 µM). Besides, the viability, T/C is, setting by setting: (second compound 0.316 µM, first compound 0.000316 µM) 88.5%; (second compound 0.316 µM, first compound 0.001 µM) 86.6%; (second compound 0.316 µM, first compound 0.00316 µM) 77.7%; (second compound 0.316 µM, first compound 0.01 µM) 82.8%; (second compound 0.316 µM, first compound 0.0316 µM) 75.5%; (second compound 0.316 µM, first compound 0.1 µM) 73.4%. The viability, T/C (second compound 1 µM, first compound 0.000316 µM) is 90.9%; the viability, T/C (second compound 1 µM, first compound 0.001 µM) is 85.3%; the viability, T/C (second compound 1 µM, first compound 0.00316 µM) is 85.2%; the viability, T/C (second compound 1 µM, first compound 0.01 µM) is 65%; the viability, T/C (second compound 1 µM, first compound 0.0316 µM) was 68.4%; the viability, T/C (second compound 1 µM, first compound 0.1 µM) was 61.1%. Moreover, the viability, T/C (second compound 3.16 µM, first compound 0.000316 µM) is 58.7%; the viability, T/C (second compound 3.16 µM, first compound 0.001 µM) was 69.5%; the viability, T/C (second compound 3.16 µM, first compound 0.00316 µM) was 57.3%; the viability, T/C (second compound 3.16 µM, first compound 0.01 µM) was 57.4%; the viability, T/C (second compound 3.16 µM, first compound 0.0316 µM) was 52.6%; the viability, T/C (second compound 3.16 µM, first compound 0.1 µM) is 40.2%. The viability, T/C by setting is: (second compound 10 µM, first compound 0.000316 µM) 54.1%; (second compound 10 µM, first compound 0.001 µM) 50.3%; (second compound 10 µM, first compound 0.00316 µM) 43.6%; (second compound 10 µM, first compound 0.01 µM) 42%; (second compound 10 µM, first compound 0.0316 µM) 42%; (second compound 10 µM, first compound 0.1 µM) 28.9%.

Regarding `Cc1c(S(C)(=O)=O)c(-c2cc(F)cc(N3CCN(c4ccc(NS(=O)(=O)c5ccc(NC(CCN6CCC(C(=O)OCCCP(=O)(O)O)CC6)CSc6ccccc6)c(S(=O)(=O)C(F)(F)F)c5)cc4)CC3)c2)c(-c2ccc(Cl)cc2)n1C(C)C` (stereo unspecified), the viability, T/C by setting is: (compound 0.0316 µM) 101% [middle of 7 runs]; (compound 0.1 µM) 93.1% [middle of 7 runs]; (compound 0.316 µM) 91.5% [middle of 7 runs]; (compound 1 µM) 77.7% [middle of 7 runs]; (compound 3.16 µM) 63% [middle of 7 runs]; (compound 10 µM) 55.6% [middle of 7 runs]. In addition, the pIC50 under setting [1] is less than 5.00.

On to `Cc1nc(N2CCC3(CC2)COC(C)C3N)c(CO)nc1Sc1ccnc(N)c1Cl` (stereo unspecified), for which the viability, T/C reads like this: (compound 0.00949 µM) 92.9% and 104% and 105%; (compound 0.03 µM) 105% and 93.2% and 112%; (compound 0.0949 µM) 95.7% and 91.3% and 95.2%; (compound 0.3 µM) 96.7% and 100% and 87%; (compound 0.949 µM) 88.2% and 85.2% and 73.8%; (compound 3 µM) 64.9% and 62.4% and 62.7%. Moreover, the pIC50 (curve of compound) is less than 5.52.

These data come from PubChem BioAssay AID1963449 (Molecular Pharmacology Branch, DTP, NCI, 2024).
